According to article PMC4103530, “Antimicrobial Activity of Pantothenol against Staphylococci Possessing a Prokaryotic Type II Pantothenate Kinase” (Microbes and Environments, 2014):

What was measured:
[1] = target: T1, EcCoaA (prokaryotic type I pantothenate kinase) (Escherichia coli, UniProt P0A6I3); experiment: radiometric pantothenate kinase assay with D-[…]pantothenate; type: biochemical
T1 construct: gene coaA; recombinant from pET15b/bPanK in E. coli BL21 (DE3), nickel-resin purified, His-tag
T1 sequence (P0A6I3 1-316): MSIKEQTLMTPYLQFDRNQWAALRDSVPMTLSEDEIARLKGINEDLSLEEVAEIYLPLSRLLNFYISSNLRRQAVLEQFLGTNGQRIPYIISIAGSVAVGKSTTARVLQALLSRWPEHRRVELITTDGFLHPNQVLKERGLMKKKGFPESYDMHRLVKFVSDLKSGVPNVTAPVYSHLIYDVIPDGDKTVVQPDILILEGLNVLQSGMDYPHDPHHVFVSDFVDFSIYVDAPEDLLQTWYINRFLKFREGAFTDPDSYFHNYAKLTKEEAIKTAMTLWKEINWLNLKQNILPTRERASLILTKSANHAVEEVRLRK

[2] = target: T2, SaCoaA (prokaryotic type II pantothenate kinase) (Staphylococcus aureus, UniProt Q8NVG0); experiment: as above; type: biochemical
T2 construct: gene coaW; recombinant from pET-28a(+) (pET-Sa-coaA) in E. coli BL21 (DE3), nickel-resin purified, His-tag
T2 sequence (Q8NVG0 1-267): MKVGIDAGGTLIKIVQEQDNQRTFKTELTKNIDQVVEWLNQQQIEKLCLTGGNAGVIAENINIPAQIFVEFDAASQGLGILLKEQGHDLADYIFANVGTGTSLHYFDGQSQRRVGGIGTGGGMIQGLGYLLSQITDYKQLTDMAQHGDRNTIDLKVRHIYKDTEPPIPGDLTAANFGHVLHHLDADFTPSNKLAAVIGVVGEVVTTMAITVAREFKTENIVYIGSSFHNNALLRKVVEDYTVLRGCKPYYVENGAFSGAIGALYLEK

Structure (SMILES): CC(C)(CO)[C@@H](O)C(=O)NCCCO [d-pantothenol]
- IC50 [1]: 6.06 mM
- IC50 [2]: 1.68 mM
